Source: patent US20190255086A1, “Compositions and Methods for Treating an Infection” (CMPD Licensing, LLC, priority 2015, published 2019)

How the values were obtained:
[1] = test system: Pseudomonas fluorescens; assay: Expected efficacy of anti-bacterial agents against various bacteria (Tables 5 and 6); settings: Gram: neg
[2] = test system: Francisella tularensis; settings: expected efficacy; Francisella tularensis; Gram: neg
[3] = test system: Enterococcus faecium; assay: Expected efficacy of anti-bacterial agents against various bacteria (Tables 5 and 6); settings: Gram: pos
[4] = test system: Streptococcus agalactiae; assay: as above; settings: Gram: pos
[5] = test system: Neisseria meningitidis; assay: as above; settings: Gram: neg
[6] = test system: Enterobacter cloacae; assay: as above; settings: Gram: neg
[7] = test system: Brucella species; settings: expected efficacy; Brucella species; Gram: neg
[8] = test system: Klebsiella oxytoca; assay: Expected efficacy of anti-bacterial agents against various bacteria (Tables 5 and 6); settings: Gram: neg
[9] = test system: Streptococcus pneumoniae; assay: as above; settings: Gram: pos
[10] = test system: Citrobacter freundii; assay: as above; settings: Gram: neg
[11] = test system: Klebsiella (Calymmatobacterium) granulomatis; assay: as above; settings: Gram: neg
[12] = test system: Providencia rettgeri; assay: as above; settings: Gram: neg
[13] = test system: Bartonella bacilliformis; assay: as above; settings: Gram: neg
[14] = test system: Corynebacterium jeikeium; assay: as above; settings: Gram: pos
[15] = test system: Clostridium perfringens; settings: expected efficacy; Clostridium perfringens; Gram: anaer
[16] = test system: Klebsiella pneumoniae; assay: Expected efficacy of anti-bacterial agents against various bacteria (Tables 5 and 6); settings: Gram: neg
[17] = test system: Chlamydia pneumoniae; assay: as above; settings: Gram: n/a
[18] = test system: Enterococcus faecalis; assay: as above; settings: Gram: pos
[19] = test system: Proteus vulgaris; assay: as above; settings: Gram: neg
[20] = test system: Staphylococcus aureus (MSSA); assay: as above; settings: Gram: pos
[21] = test system: Clostridium difficile; assay: as above; settings: Gram: anaer
[22] = test system: Campylobacter jejuni; assay: as above; settings: Gram: neg
[23] = test system: Acinetobacter baumannii; assay: as above; settings: Gram: neg
[24] = test system: Methicillin resistant staph aureus (MRSA); assay: as above; settings: Gram: pos
[25] = test system: Acinetobacter calcoaceticus; assay: as above; settings: Gram: neg
[26] = test system: Chlamydia trachomatis; assay: as above; settings: Gram: n/a
[27] = test system: Pseudomonas aeruginosa; assay: as above; settings: Gram: neg
[28] = test system: Providencia stuartii; assay: as above; settings: Gram: neg
[29] = test system: Bordetella pertussis; assay: as above; settings: Gram: neg
[30] = test system: Vibrio cholerae; assay: as above; settings: Gram: neg
[31] = test system: Morganella morganii; assay: as above; settings: Gram: neg
[32] = test system: Bacteroides fragilis; assay: as above; settings: Gram: anaer
[33] = test system: Rickettsiae; settings: expected efficacy; Rickettsiae; Gram: neg
[34] = test system: Enterobacter aerogenes; assay: Expected efficacy of anti-bacterial agents against various bacteria (Tables 5 and 6); settings: Gram: neg
[35] = test system: Legionella pneumophila; settings: expected efficacy; Legionella pneumophila; Gram: neg
[36] = test system: Enterobacter sakazakii; assay: Expected efficacy of anti-bacterial agents against various bacteria (Tables 5 and 6); settings: Gram: neg
[37] = test system: Escherichia coli; assay: as above; settings: Gram: neg
[38] = test system: Acinetobacter lwoffii; assay: as above; settings: Gram: neg
[39] = test system: Chlamydia psittaci; settings: expected efficacy; Chlamydia psittaci; Gram: n/a
[40] = test system: Moraxella catarrhalis; assay: Expected efficacy of anti-bacterial agents against various bacteria (Tables 5 and 6); settings: Gram: neg
[41] = test system: Serratia marcescens; assay: as above; settings: Gram: neg
[42] = test system: Proteus mirabilis; assay: as above; settings: Gram: neg
[43] = test system: Haemophilus influenzae; assay: as above; settings: Gram: neg
[44] = test system: Staphylococcus epidermidis; assay: as above; settings: Gram: pos
[45] = test system: Streptococcus pyogenes; assay: as above; settings: Gram: pos
[46] = test system: Mycoplasma pneumoniae; assay: as above; settings: Gram: n/a
[47] = test system: Citrobacter diversus; assay: as above; settings: Gram: neg
[48] = test system: Shigella dysenteriae; assay: as above; settings: Gram: neg
[49] = test system: Yersinia pestis; settings: expected efficacy; Yersinia pestis; Gram: neg
[50] = test system: Salmonella typhi; assay: Expected efficacy of anti-bacterial agents against various bacteria (Tables 5 and 6); settings: Gram: neg
[51] = test system: Neisseria gonorrhoeae; assay: as above; settings: Gram: neg
[52] = test system: Haemophilus parainfluenzae; assay: as above; settings: Gram: neg
[53] = test system: Shigella flexneri; assay: as above; settings: Gram: neg
[54] = test system: Shigella sonnei; assay: as above; settings: Gram: neg
[55] = test system: Shigella boydii; assay: as above; settings: Gram: neg
[56] = test system: Candida species; assay: Expected efficacy of anti-fungal agents against various fungi (Table 4)
[57] = test system: Corynebacterium urealyticum; assay: Expected efficacy of anti-bacterial agents against various bacteria (Tables 5 and 6); settings: Gram: pos
[58] = test system: Viridans group streptococci; assay: as above; settings: Gram: pos
[59] = test system: Haemophilus ducreyi; assay: as above; settings: Gram: neg
[60] = test system: Diphtheroids; assay: as above; settings: Gram: pos
[61] = test system: Peptostreptococcus; assay: as above; settings: Gram: pos

CC[C@H]1OC(=O)[C@H](C)[C@@H](O[C@H]2C[C@@](C)(OC)[C@@H](O)[C@H](C)O2)[C@H](C)[C@@H](O[C@@H]2O[C@H](C)C[C@H](N(C)C)[C@H]2O)[C@](C)(O)C[C@@H](C)CN(C)[C@H](C)[C@@H](O)[C@]1(C)O [Azithromycin]
no: Efficacy of various antibiotic agents [1] | Efficacy of various antibiotic agents [2] | Efficacy of various antibiotic agents [3] | Efficacy of various antibiotic agents [6] | Efficacy of various antibiotic agents [7] | Efficacy of various antibiotic agents [8] | Efficacy of various antibiotic agents [10] | Efficacy of various antibiotic agents [11] | Efficacy of various antibiotic agents [12] | Efficacy of various antibiotic agents [14] | Efficacy of various antibiotic agents [15] | Efficacy of various antibiotic agents [16] | Efficacy of various antibiotic agents [18] | Efficacy of various antibiotic agents [19] | Efficacy of various antibiotic agents [21] | Efficacy of various antibiotic agents [23] | Efficacy of various antibiotic agents [24] | Efficacy of various antibiotic agents [25] | Efficacy of various antibiotic agents [27] | Efficacy of various antibiotic agents [28] | Efficacy of various antibiotic agents [31] | Efficacy of various antibiotic agents [32] | Efficacy of various antibiotic agents [34] | Efficacy of various antibiotic agents [36] | Efficacy of various antibiotic agents [37] | Efficacy of various antibiotic agents [38] | Efficacy of various antibiotic agents [41] | Efficacy of various antibiotic agents [42] | Efficacy of various antibiotic agents [47]
yes: Efficacy of various antibiotic agents [4] | Efficacy of various antibiotic agents [5] | Efficacy of various antibiotic agents [9] | Efficacy of various antibiotic agents [13] | Efficacy of various antibiotic agents [17] | Efficacy of various antibiotic agents [20] | Efficacy of various antibiotic agents [22] | Efficacy of various antibiotic agents [26] | Efficacy of various antibiotic agents [29] | Efficacy of various antibiotic agents [30] | Efficacy of various antibiotic agents [33] | Efficacy of various antibiotic agents [35] | Efficacy of various antibiotic agents [39] | Efficacy of various antibiotic agents [40] | Efficacy of various antibiotic agents [43] | Efficacy of various antibiotic agents [44] | Efficacy of various antibiotic agents [45] | Efficacy of various antibiotic agents [46]

O=C(O)c1cn(C2CC2)c2cc(N3CCNCC3)c(F)cc2c1=O [Ciprofloxacin]
no: Efficacy of various antibiotic agents [3] | Efficacy of various antibiotic agents [14] | Efficacy of various antibiotic agents [24] | Efficacy of various antibiotic agents [32]
yes: Efficacy of various antibiotic agents [1] | Efficacy of various antibiotic agents [2] | Efficacy of various antibiotic agents [5] | Efficacy of various antibiotic agents [48] | Efficacy of various antibiotic agents [8] | Efficacy of various antibiotic agents [10] | Efficacy of various antibiotic agents [12] | Efficacy of various antibiotic agents [13] | Efficacy of various antibiotic agents [49] | Efficacy of various antibiotic agents [16] | Efficacy of various antibiotic agents [17] | Efficacy of various antibiotic agents [19] | Efficacy of various antibiotic agents [50] | Efficacy of various antibiotic agents [22] | Efficacy of various antibiotic agents [51] | Efficacy of various antibiotic agents [52] | Efficacy of various antibiotic agents [27] | Efficacy of various antibiotic agents [28] | Efficacy of various antibiotic agents [53] | Efficacy of various antibiotic agents [30] | Efficacy of various antibiotic agents [31] | Efficacy of various antibiotic agents [33] | Efficacy of various antibiotic agents [34] | Efficacy of various antibiotic agents [35] | Efficacy of various antibiotic agents [37] | Efficacy of various antibiotic agents [40] | Efficacy of various antibiotic agents [41] | Efficacy of various antibiotic agents [42] | Efficacy of various antibiotic agents [43] | Efficacy of various antibiotic agents [54] | Efficacy of various antibiotic agents [44] | Efficacy of various antibiotic agents [55] | Efficacy of various antibiotic agents [47]

C[C@@H]1[C@H](O)[C@@H](C)/C=C/C=C/CC/C=C/C=C/C=C/C=C/C(O[C@H]2O[C@H](C)[C@@H](O)[C@H](N)[C@@H]2O)CC2O[C@](O)(CC(O)C(O)CCC(O)CC(O)CC(O)CC(=O)O[C@H]1C)CC(O)C2C(=O)O (stereo partly shown) [Nystatin]
yes: Efficacy of various antifungal agents [56]

NC[C@H]1O[C@H](O[C@H]2[C@H](O)[C@@H](O[C@H]3O[C@H](CO)[C@@H](O)[C@H](N)[C@H]3O)[C@H](N)C[C@@H]2N)[C@H](N)C[C@@H]1O [Tobramycin]
no: Efficacy of various antibiotic agents [3] | Efficacy of various antibiotic agents [4] | Efficacy of various antibiotic agents [5] | Efficacy of various antibiotic agents [57] | Efficacy of various antibiotic agents [9] | Efficacy of various antibiotic agents [58] | Efficacy of various antibiotic agents [14] | Efficacy of various antibiotic agents [15] | Efficacy of various antibiotic agents [17] | Efficacy of various antibiotic agents [18] | Efficacy of various antibiotic agents [20] | Efficacy of various antibiotic agents [21] | Efficacy of various antibiotic agents [23] | Efficacy of various antibiotic agents [51] | Efficacy of various antibiotic agents [24] | Efficacy of various antibiotic agents [25] | Efficacy of various antibiotic agents [26] | Efficacy of various antibiotic agents [29] | Efficacy of various antibiotic agents [30] | Efficacy of various antibiotic agents [60] | Efficacy of various antibiotic agents [32] | Efficacy of various antibiotic agents [35] | Efficacy of various antibiotic agents [61] | Efficacy of various antibiotic agents [38] | Efficacy of various antibiotic agents [39] | Efficacy of various antibiotic agents [44] | Efficacy of various antibiotic agents [45] | Efficacy of various antibiotic agents [46]
yes: Efficacy of various antibiotic agents [1] | Efficacy of various antibiotic agents [6] | Efficacy of various antibiotic agents [48] | Efficacy of various antibiotic agents [8] | Efficacy of various antibiotic agents [10] | Efficacy of various antibiotic agents [11] | Efficacy of various antibiotic agents [49] | Efficacy of various antibiotic agents [16] | Efficacy of various antibiotic agents [19] | Efficacy of various antibiotic agents [22] | Efficacy of various antibiotic agents [59] | Efficacy of various antibiotic agents [27] | Efficacy of various antibiotic agents [53] | Efficacy of various antibiotic agents [34] | Efficacy of various antibiotic agents [36] | Efficacy of various antibiotic agents [37] | Efficacy of various antibiotic agents [40] | Efficacy of various antibiotic agents [41] | Efficacy of various antibiotic agents [42] | Efficacy of various antibiotic agents [43] | Efficacy of various antibiotic agents [54] | Efficacy of various antibiotic agents [55] | Efficacy of various antibiotic agents [47]
